Source: EP1247803A2, “Indolinone compounds suitable for modulation of protein kinases” (Sugen, Inc., priority 1996, dated 1998)

Tests used:
FLK-1 receptor = biological target: T1, FLK-1 receptor (Mus musculus, UniProt P35918); experiment: FLK-1 ELISA (kinase activity of the FLK-1 receptor in FLK-1/NIH3T3 cells, VEGF stimulated); assay type: cell-based; design: concentration or dose not given beside the values
T1 construct: expressed in transfected cells; host or cells: NIH3T3 C7#3
Summary of the method: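 An ELISA using affinity-purified rabbit anti-FLK-1 antiserum on anti-rabbit IgG-coated plates measured VEGF-stimulated FLK-1 kinase activity. NIH3T3 C7#3 cells carrying FLK-1 were serum-starved (0.1% FBS) overnight, then exposed to compound (final 1:200 dilution, 0.5% DMSO) for two hours at 37 °C.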

PDGF-R = PDGF-R (Homo sapiens, UniProt P09619); experiment: PDGF-R ELISA; assay type: cell-based
Chain of PDGF-R (P09619 33-1106, species assumed): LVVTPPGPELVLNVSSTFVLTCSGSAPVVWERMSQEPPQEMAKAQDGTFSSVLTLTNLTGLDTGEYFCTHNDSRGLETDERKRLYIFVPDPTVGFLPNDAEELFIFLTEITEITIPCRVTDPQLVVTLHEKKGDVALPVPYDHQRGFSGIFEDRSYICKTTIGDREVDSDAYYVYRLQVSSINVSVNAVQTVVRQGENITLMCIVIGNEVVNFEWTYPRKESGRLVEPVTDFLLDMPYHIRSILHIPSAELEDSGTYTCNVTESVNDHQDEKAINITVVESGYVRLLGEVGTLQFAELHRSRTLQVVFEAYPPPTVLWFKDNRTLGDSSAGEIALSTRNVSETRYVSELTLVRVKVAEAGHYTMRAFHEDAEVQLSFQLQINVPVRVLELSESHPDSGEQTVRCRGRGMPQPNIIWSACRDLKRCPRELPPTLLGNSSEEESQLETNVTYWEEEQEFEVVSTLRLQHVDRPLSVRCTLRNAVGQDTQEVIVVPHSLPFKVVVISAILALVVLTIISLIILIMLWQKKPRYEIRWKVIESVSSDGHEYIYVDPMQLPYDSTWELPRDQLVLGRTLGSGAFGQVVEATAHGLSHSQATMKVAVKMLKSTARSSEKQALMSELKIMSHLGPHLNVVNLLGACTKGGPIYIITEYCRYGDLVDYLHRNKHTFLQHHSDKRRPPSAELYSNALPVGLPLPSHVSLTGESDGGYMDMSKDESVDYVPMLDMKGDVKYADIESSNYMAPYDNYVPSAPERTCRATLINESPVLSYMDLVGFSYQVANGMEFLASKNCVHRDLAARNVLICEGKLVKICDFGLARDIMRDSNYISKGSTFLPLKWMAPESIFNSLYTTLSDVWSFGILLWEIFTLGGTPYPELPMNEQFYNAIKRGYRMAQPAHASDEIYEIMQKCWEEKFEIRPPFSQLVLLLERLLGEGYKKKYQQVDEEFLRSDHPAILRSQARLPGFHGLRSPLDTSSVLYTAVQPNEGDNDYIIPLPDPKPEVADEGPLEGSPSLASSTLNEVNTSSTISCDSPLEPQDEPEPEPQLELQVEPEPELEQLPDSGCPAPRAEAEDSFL
Excerpt: A PDGF-R ELISA is described in International Patent Publication No. WO 96/40116, published December 19, 1996 by Tang et al.

T1 sequence (P35918 20-1345): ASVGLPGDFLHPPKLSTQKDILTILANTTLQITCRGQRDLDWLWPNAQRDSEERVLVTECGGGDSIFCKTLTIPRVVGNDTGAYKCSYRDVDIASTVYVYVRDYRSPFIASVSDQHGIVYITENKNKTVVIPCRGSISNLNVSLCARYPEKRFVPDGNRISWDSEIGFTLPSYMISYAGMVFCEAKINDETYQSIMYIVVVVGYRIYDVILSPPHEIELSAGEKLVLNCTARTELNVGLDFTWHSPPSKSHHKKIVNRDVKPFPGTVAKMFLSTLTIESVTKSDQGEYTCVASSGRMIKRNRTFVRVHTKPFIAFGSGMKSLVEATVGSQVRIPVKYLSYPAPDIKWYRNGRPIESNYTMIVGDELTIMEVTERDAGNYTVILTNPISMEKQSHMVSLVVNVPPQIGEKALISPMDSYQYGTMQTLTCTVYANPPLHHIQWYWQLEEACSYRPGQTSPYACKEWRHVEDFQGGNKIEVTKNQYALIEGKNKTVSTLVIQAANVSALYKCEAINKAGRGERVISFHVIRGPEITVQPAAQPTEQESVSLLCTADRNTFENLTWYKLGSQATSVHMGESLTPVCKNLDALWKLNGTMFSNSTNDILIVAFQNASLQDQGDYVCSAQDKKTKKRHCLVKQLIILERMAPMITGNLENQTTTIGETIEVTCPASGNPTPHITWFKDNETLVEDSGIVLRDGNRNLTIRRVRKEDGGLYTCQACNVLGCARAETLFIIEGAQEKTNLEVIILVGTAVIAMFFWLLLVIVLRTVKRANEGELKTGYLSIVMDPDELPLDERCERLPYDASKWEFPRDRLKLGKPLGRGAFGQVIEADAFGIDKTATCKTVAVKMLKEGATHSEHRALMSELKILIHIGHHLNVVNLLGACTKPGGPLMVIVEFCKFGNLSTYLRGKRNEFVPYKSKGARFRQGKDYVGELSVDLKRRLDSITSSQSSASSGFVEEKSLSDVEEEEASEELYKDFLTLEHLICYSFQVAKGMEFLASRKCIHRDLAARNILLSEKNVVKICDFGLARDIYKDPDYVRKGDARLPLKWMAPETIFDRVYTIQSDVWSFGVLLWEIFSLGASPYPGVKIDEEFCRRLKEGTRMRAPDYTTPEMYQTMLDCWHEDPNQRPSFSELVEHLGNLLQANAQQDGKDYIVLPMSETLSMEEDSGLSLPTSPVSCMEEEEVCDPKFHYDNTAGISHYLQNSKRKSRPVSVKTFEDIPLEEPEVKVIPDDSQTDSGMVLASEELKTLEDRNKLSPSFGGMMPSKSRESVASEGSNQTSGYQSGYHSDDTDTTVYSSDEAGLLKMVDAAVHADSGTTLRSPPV

SMILES | Fik Kinase %Inhibition (FLK-1 receptor) | PDGF Kinase %Inhibition (PDGF-R)
O=C1Nc2ccc(S(=O)(=O)N3CCOCC3)cc2C1=Cc1cc(O)c2c(c1O)CCCC2 [10726/F07] | 9.6% | -99.4%
CCOC(=O)c1[nH]c(C=C2C(=O)Nc3ccc(S(=O)(=O)NC)cc32)c(C(=O)OC)c1C [10726/D03] | 21.6% | 21.4%
O=C1Nc2c(Br)cc(Br)cc2C1=Cc1cc2c(cc1Cl)OCO2 [10727/A06] | -17.1% | 13.7%
Cc1cc(C=C2C(=O)Nc3ccc(CCCl)cc32)cc(C(C)(C)C)c1O [10726/G04] | 9.7% | 14.5%
Cc1c(Br)ccc2c1C(=C1C(=O)Nc3ccccc31)C(=O)N2 [10726/C09] | 12.9% | 26.5%
O=C1Nc2c(Br)cc(Br)cc2C1=Cc1ccccc1Sc1ccc(Cl)cc1 [10727/A05] | 4.2% | 5.7%
CNS(=O)(=O)c1ccc2c(c1)C(=Cc1ccc(OC)cc1)C(=O)N2 [10726/D11] | 10.5% | 30.9%
CCc1cc(CC)c(C=C2C(=O)Nc3ccc(I)cc32)[nH]1 [10727/B03] | -13.4% | -7.4%
Cc1cn(C)cc1C=C1C(=O)Nc2ccc(S(=O)(=O)Nc3ccc(C(F)(F)F)cc3)cc21 [10726/E06] | 6.2% | 41.7%
N#Cc1cccc(C=C2C(=O)Nc3ccc(I)cc32)c1 [10727/B08] | 4.0% | 14.4%
Cc1cn(C)cc1C=C1C(=O)Nc2ccc(CCCl)cc21 [10726/G06] | 7.0% | -26.6%
COc1ccc(C=C2C(=O)Nc3ccc(S(=O)(=O)Nc4ccc(C(F)(F)F)cc4)cc32)cc1 [10726/E11] | 16.2% | 30.3%
COc1cccc(O)c1C=C1C(=O)Nc2ccc(CCCl)cc21 [10717/G10] | 4.8% | 
O=C1Nc2ccc(CCCl)cc2C1=Cc1cc(O)c2c(c1O)CCCC2 [10726/G07] | -13.7% | -107.6%
CCc1cc(CC)c(C=C2C(=O)Nc3ccc(S(=O)(=O)NC)cc32)[nH]1 [10727/D03] | 3.1% | -3.0%
N#Cc1ccc(C=C2C(=O)Nc3c(Br)cc(Br)cc32)cc1 [10727/A09] | -16.8% | 16.6%
Cc1c(Br)ccc2c1C(=Cc1cc(Cl)cc(Br)c1O)C(=O)N2 [10727/C04] | 0.2% | 23.2%
O=C1Nc2ccccc2C1=C1C(=O)Nc2ccc(S(=O)(=O)N3CCOCC3)cc21 [10726/F09] | 9.6% | -2.6%
O=C1Nc2ccc(I)cc2C1=Cc1cc(O)ccc1O [10727/B10] | 3.9% | 29.7%
CCN(CC)c1ccc(C=C2C(=O)Nc3c(Br)cc(Br)cc32)cc1 [10727/A02] | -1.3% | -10.3%
Cc1cn(C)cc1C=C1C(=O)Nc2ccc(S(=O)(=O)N3CCOCC3)cc21 [10726/F06] | 17.7% | 17.0%

SMILES | Fik Kinase %Inhibition (FLK-1 receptor) | PDGF Kinase %Inhibition (PDGF-R)
CCc1ccc(C=C2C(=O)Nc3ccc(S(=O)(=O)N4CCOCC4)cc32)s1 [10726/F10] | 7.0% | 9.4%
O=C1Nc2ccc(S(=O)(=O)Nc3ccc(C(F)(F)F)cc3)cc2C1=Cc1cc(O)c2c(c1O)CCCC2 [10726/E07] | -40.0% | -12.1%
CCc1ccc(C=C2C(=O)Nc3ccc(S(=O)(=O)Nc4ccc(C(F)(F)F)cc4)cc32)s1 [10726/E10] | 16.5% | 37.9%
CNS(=O)(=O)c1ccc2c(c1)C(=Cc1cc(O)c3c(c1O)CCCC3)C(=O)N2 [10726/D07] | -26.9% | -81.0%
Cc1cc(C=C2C(=O)Nc3ccc(S(=O)(=O)N4CCOCC4)cc32)cc(C(C)(C)C)c1O [10726/F04] | 31.5% | 18.3%
Cc1cc(C=C2C(=O)Nc3ccc(S(=O)(=O)Nc4ccc(C(F)(F)F)cc4)cc32)cc(C(C)(C)C)c1O [10726/E04] | 8.1% | 12.6%
O=C1Nc2ccc(S(=O)(=O)Nc3ccc(C(F)(F)F)cc3)cc2C1=Cc1ccc(Br)o1 [10726/E05] | 8.1% | 4.3%
CCc1ccc(C=C2C(=O)Nc3ccc(Br)c(C)c32)s1 [10726/C10] | 5.5% | 16.4%
Cc1c(Br)ccc2c1C(=C1C(=O)Nc3ccc(F)cc31)C(=O)N2 [10726/C08] | 3.4% | 21.4%
O=C1Nc2ccc(F)cc2C1=C1C(=O)Nc2ccc(CCCl)cc21 [10726/G08] | 2.9% | 14.5%
O=C1Nc2ccc(CCCl)cc2C1=Cc1ccc(Br)o1 [10726/G05] | 14.9% | 6.2%
COc1cccc(C=C2C(=O)Nc3ccc(I)cc32)c1OC [10727/B11] | 16.8% | 15.9%
CNS(=O)(=O)c1ccc2c(c1)C(=Cc1ccc(Br)o1)C(=O)N2 [10726/D05] | 8.2% | 39.1%
CCc1ccc(C=C2C(=O)Nc3ccc(S(=O)(=O)NC)cc32)s1 [10726/D10] | 14.7% | 32.2%
O=C1Nc2c(Br)cc(Br)cc2C1=Cc1cc(O)ccc1O [10727/A10] | -6.4% | 18.1%
Cc1c(Br)ccc2c1C(=Cc1ccccc1Sc1ccc(Cl)cc1)C(=O)N2 [10727/C05] | 13.7% | 7.9%
O=C1Nc2ccccc2C1=C1C(=O)Nc2ccc(CCCl)cc21 [10726/G09] | 3.6% | 13.2%
CCN(CC)c1ccc(C=C2C(=O)Nc3ccc(S(=O)(=O)NC)cc32)cc1 [10727/D02] | 3.2% | 5.7%
Cc1ccc(C=C2C(=O)Nc3ccc(CCCl)cc32)s1 [10717/G07] | -17.0% | 
O=C1Nc2ccc(I)cc2C1=Cc1cc2c(cc1Cl)OCO2 [10727/B06] | -3.9% | 6.4%
O=C1Nc2ccc(I)cc2C1=Cc1cc(Cl)cc(Br)c1O [10727/B04] | 46.0% | 21.0%

SMILES | Fik Kinase %Inhibition (FLK-1 receptor) | PDGF Kinase %Inhibition (PDGF-R)
COc1ccc(C=C2C(=O)Nc3ccc(CCCl)cc32)cc1 [10726/G11] | 9.1% | -7.7%
CCc1cc(CC)c(C=C2C(=O)Nc3c(Br)cc(Br)cc32)[nH]1 [10727/A03] | 6.3% | -4.5%
O=C1Nc2ccc(CCCl)cc2C1=Cc1c[nH]c2ccccc12 [10717/G06] | 4.3% | 
N#Cc1ccc(C=C2C(=O)Nc3ccc(I)cc32)cc1 [10727/B09] | 6.7% | 18.1%
CCOC(=O)c1[nH]c(C=C2C(=O)Nc3ccc(S(=O)(=O)Nc4ccc(C(F)(F)F)cc4)cc32)c(C(=O)OC)c1C [10726/E03] | -5.5% | 20.2%
Cc1c(Br)ccc2c1C(=Cc1cc(O)ccc1O)C(=O)N2 [10727/C10] | -35.3% | 45.7%
CNS(=O)(=O)c1ccc2c(c1)C(=Cc1cc(C)c(O)c(C(C)(C)C)c1)C(=O)N2 [10726/D04] | 7.8% | 34.1%
O=C1Nc2c(Br)cc(Br)cc2C1=Cc1c[nH]c2ccccc12 [10717/A06] | -10.8% | 
O=C1Nc2c(Br)cc(Br)cc2C1=Cc1coc2ccccc2c1=O [10727/A07] | -10.7% | 12.3%
CCOC(=O)c1[nH]c(C=C2C(=O)Nc3ccc(S(=O)(=O)N4CCOCC4)cc32)c(C(=O)OC)c1C [10726/F03] | 8.3% | 5.6%
O=C1Nc2ccc(F)cc2C1=C1C(=O)Nc2ccc(S(=O)(=O)N3CCOCC3)cc21 [10726/F08] | 15.3% | 28.4%
COc1cccc(C=C2C(=O)Nc3ccc(Br)c(C)c32)c1OC [10727/C11] | -25.6% | 22.4%
COc1cccc(C=C2C(=O)Nc3c(Br)cc(Br)cc32)c1OC [10727/A11] | 7.4% | 10.8%
CCN(CC)c1ccc(C=C2C(=O)Nc3ccc(Br)c(C)c32)cc1 [10727/C02] | -2.0% | -12.5%
O=C1Nc2ccccc2C1=C1C(=O)Nc2ccc(S(=O)(=O)Nc3ccc(C(F)(F)F)cc3)cc21 [10726/E09] | 9.9% | 34.7%
Cn1cccc1C=C1C(=O)Nc2ccc(CCCl)cc21 [10717/G04] | 0.8% | 
O=C1Nc2ccc(CCCl)cc2C1=Cc1ccc(Br)cc1 [10717/G08] | 1.9% | 
Cc1c(Br)ccc2c1C(=Cc1cc3c(cc1Cl)OCO3)C(=O)N2 [10727/C06] | 5.2% | 12.3%
O=C1Nc2ccc(I)cc2C1=Cc1ccccc1Sc1ccc(Cl)cc1 [10727/B05] | 10.5% | 9.4%
O=C1Nc2ccc(CCCl)cc2C1=Cc1ccc(F)cc1 [10717/G05] | 5.3% | 
O=C1Nc2ccc(CCCl)cc2C1=Cc1ccc[nH]1 [10717/G09] | -29.7% | 
